Where a name gives a salt, the structure may show the parent alone.

The conditions of this experiment: male Chinchilla rabbits, topical to right eye once daily for 3 days, 30 μL/eye/dose; dosing on day 3 at 24 h; vs control. As for the experimental part: ROCK In Vivo Inhibition Activity-Method C
Eighteen male rabbits were randomly assigned to 3 groups (6 animals/group). […] Clinical observations and ophthalmic examinations were performed once daily. IOP was measured by TONOVET Plus before first dosing, and at 0.5, 2, 4, 6 and 24 h after each first dosing on day 1 and day 3.
The change of IOP % was calculated using the following formula: The change of IOP %(ΔIOP %)=[IOP(time)−IOP(control)]/IOP(control)*100).
Select compounds prepared as described above were assayed according to the biological procedures described in Method C.

`[2H]c1nccc2cc(NC(=O)[C@H](CN)c3ccc(COC(=O)c4ccc(C)cc4C)cc3)ccc12` [Example 1, (S)-4-(3-amino-1-((isoquinolin-6-yl-1-d)amino)-1-oxopropan-2-yl)benzyl 2,4-dimethylbenzoate]: the ΔIOP % is reported as −1.5%.

As for `[2H]C([2H])(OC(=O)c1ccc(C)cc1C)c1ccc([C@@H](CN)C(=O)Nc2ccc3cnccc3c2)cc1` [Example 3, (S)-(4-(3-amino-1-(isoquinolin-6-ylamino)-1-oxopropan-2-yl)phenyl)methyl-d2 2,4-dimethylbenzoate], the ΔIOP % was −5.02%.

Consider `[2H]c1nccc2cc(NC(=O)[C@@H](c3ccc(COC(=O)c4ccc(C)cc4C)cc3)C([2H])([2H])N)ccc12` [Example 4, (S)-4-(3-amino-1-((isoquinolin-6-yl-1-d)amino)-1-oxopropan-2-yl-3,3-d2)benzyl 2,4-dimethylbenzoate dihydrochloride], for which the ΔIOP % is −15.63%.

In the case of `[2H]C([2H])([2H])c1ccc(C(=O)OC([2H])([2H])c2ccc([C@]([2H])(C(=O)Nc3ccc4cnccc4c3)C([2H])([2H])N)cc2)c(C([2H])([2H])[2H])c1` [Example 5, (S)-(4-(3-amino-1-(isoquinolin-6-ylamino)-1-oxopropan-2-yl-2,3,3-d3)phenyl)methyl-d2 2,4-bis(methyl-d3)benzoate dihydrochloride], the ΔIOP % is reported as 1.19%.

In the case of `[2H]C([2H])([2H])c1ccc(C(=O)OC([2H])([2H])c2ccc([C@@]([2H])(CN)C(=O)Nc3ccc4cnccc4c3)cc2)c(C([2H])([2H])[2H])c1` [Example 6, (S)-(4-(3-amino-1-(isoquinolin-6-ylamino)-1-oxopropan-2-yl-2-d)phenyl)methyl-d2 2,4-bis(methyl-d3)benzoate dihydrochloride], the ΔIOP % was −16.08%.

`[2H]c1nccc2cc(NC(=O)[C@@]([2H])(c3ccc(C([2H])([2H])OC(=O)c4ccc(C)cc4C)cc3)C([2H])([2H])N)ccc12` [Example 7, (S)-(4-(3-amino-1-((isoquinolin-6-yl-1-d)amino)-1-oxopropan-2-yl-2,3,3-d3)phenyl)methyl-d2 2,4-dimethylbenzoate dihydrochloride]: the ΔIOP % was determined as 0.48%.

`[2H]C([2H])(OC(=O)c1ccc(C)cc1C)c1ccc([C@H](C(=O)Nc2ccc3cnccc3c2)C([2H])([2H])N)cc1` [Example 8, (S)-(4-(3-amino-1-(isoquinolin-6-ylamino)-1-oxopropan-2-yl-3,3-d2)phenyl)methyl-d2 2,4-dimethylbenzoate dihydrochloride]: the ΔIOP % was −7.52%.

Turning to `[2H]C([2H])(OC(=O)c1ccc(C)cc1C)c1ccc([C@@]([2H])(CN)C(=O)Nc2ccc3cnccc3c2)cc1` [Example 9, (S)-(4-(3-amino-1-(isoquinolin-6-ylamino)-1-oxopropan-2-yl-2-d)phenyl)methyl-d2 2,4-dimethylbenzoate dihydrochloride], the ΔIOP % is given as −3.06%.

Regarding `[2H]C([2H])(OC(=O)c1ccc(C)cc1C)c1ccc([C@]([2H])(C(=O)Nc2ccc3cnccc3c2)C([2H])([2H])N)cc1` [Example 10, (S)-(4-(3-amino-1-(isoquinolin-6-ylamino)-1-oxopropan-2-yl-2,3,3-d3)phenyl)methyl-d2 2,4-dimethylbenzoate dihydrochloride], the ΔIOP % is −0.78%.

As for `[2H]C([2H])(N)[C@@H](C(=O)Nc1ccc2cnccc2c1)c1ccc(COC(=O)c2ccc(C)cc2C)cc1` [Example 11, (S)-4-(3-amino-1-(isoquinolin-6-ylamino)-1-oxopropan-2-yl-3,3-d2) benzyl 2,4-dimethylbenzoate dihydrochloride], the ΔIOP % is −9.57%.

As to `[2H]c1nccc2cc(NC(=O)[C@@H](c3ccc(C([2H])([2H])OC(=O)c4ccc(C)cc4C)cc3)C([2H])([2H])N)ccc12` [Example 12, (S)-(4-(3-amino-1-((isoquinolin-6-yl-1-d)amino)-1-oxopropan-2-yl-3,3-d2)phenyl)methyl-d2 2,4-dimethylbenzoate dihydrochloride], the ΔIOP % is reported as −5.23%.

Turning to `[2H]c1nccc2cc(NC(=O)[C@]([2H])(CN)c3ccc(C([2H])([2H])OC(=O)c4ccc(C)cc4C)cc3)ccc12` [Example 13, (S)-(4-(3-amino-1-((isoquinolin-6-yl-1-d)amino)-1-oxopropan-2-yl-2-d)phenyl) methyl-d2 2,4-dimethylbenzoate dihydrochloride], the ΔIOP % is reported as −8.48%.

As for `[2H]C([2H])([2H])c1ccc(C(=O)OCc2ccc([C@@H](CN)C(=O)Nc3ccc4cnccc4c3)cc2)c(C([2H])([2H])[2H])c1` [Example 14, (S)-4-(3-amino-1-(isoquinolin-6-ylamino)-1-oxopropan-2-yl)benzyl 2,4-bis(methyl-d3)benzoate dihydrochloride], the ΔIOP % is recorded as −5.81%.

With `[2H]C([2H])([2H])c1ccc(C(=O)OC([2H])([2H])c2ccc([C@@H](CN)C(=O)Nc3ccc4cnccc4c3)cc2)c(C([2H])([2H])[2H])c1` [Example 15, (S)-(4-(3-amino-1-(isoquinolin-6-ylamino)-1-oxopropan-2-yl)phenyl)methyl-d2 2,4-bis(methyl-d3)benzoate dihydrochloride], the ΔIOP % is on record as −4.25%.

Consider `[2H]C([2H])([2H])c1ccc(C(=O)OCc2ccc([C@H](C(=O)Nc3ccc4cnccc4c3)C([2H])([2H])N)cc2)c(C([2H])([2H])[2H])c1` [Example 16, (S)-4-(3-amino-1-(isoquinolin-6-ylamino)-1-oxopropan-2-yl-3,3-d2)benzyl 2,4-bis(methyl-d3)benzoate dihydrochloride], for which the ΔIOP % is −1.44%.

Consider `[2H]c1nccc2cc(NC(=O)[C@H](CN)c3ccc(C([2H])([2H])OC(=O)c4ccc(C)cc4C)cc3)ccc12` [Example 18, (S)-(4-(3-amino-1-((isoquinolin-6-yl-1-d)amino)-1-oxopropan-2-yl)phenyl) methyl-d2 2,4-dimethylbenzoate], for which the ΔIOP % is on record as −1.1%.

As for `[2H]c1nccc2cc(NC(=O)[C@H](CN)c3ccc(COC(=O)c4ccc(C([2H])([2H])[2H])cc4C([2H])([2H])[2H])cc3)ccc12` [Example 19, (S)-4-(3-amino-1-((isoquinolin-6-yl-1-d)amino)-1-oxopropan-2-yl)benzyl 2,4-bis(methyl-d3)benzoate dihydrochloride], the ΔIOP % is listed as −3.3%.

For `[2H]c1nccc2cc(NC(=O)[C@H](CN)c3ccc(C([2H])([2H])OC(=O)c4ccc(C([2H])([2H])[2H])cc4C([2H])([2H])[2H])cc3)ccc12` [Example 20, (S)-(4-(3-amino-1-((isoquinolin-6-yl-1-d)amino)-1-oxopropan-2-yl)phenyl) methyl-d2 2,4-bis (methyl-d3)benzoate dihydrochloride], the ΔIOP % was −4.89%.

For the compound `[2H]c1nccc2cc(NC(=O)[C@@H](c3ccc(COC(=O)c4ccc(C([2H])([2H])[2H])cc4C([2H])([2H])[2H])cc3)C([2H])([2H])N)ccc12` [Example 21, (S)-4-(3-amino-1-((isoquinolin-6-yl-1-d)amino)-1-oxopropan-2-yl-3,3-d2) benzyl 2,4-bis(methyl-d3)benzoate dihydrochloride], the ΔIOP % is listed as −5.06%.

On to `[2H]c1nccc2cc(NC(=O)[C@@H](c3ccc(C([2H])([2H])OC(=O)c4ccc(C([2H])([2H])[2H])cc4C([2H])([2H])[2H])cc3)C([2H])([2H])N)ccc12` [Example 22, (S)-(4-(3-amino-1-((isoquinolin-6-yl-1-d)amino)-1-oxopropan-2-yl-3,3-d2)phenyl) methyl-d2 2,4-bis (methyl-d3)benzoate dihydrochloride], for which the ΔIOP % stood at 0.08%.

In the case of `[2H]c1nccc2cc(NC(=O)[C@]([2H])(CN)c3ccc(C([2H])([2H])OC(=O)c4ccc(C([2H])([2H])[2H])cc4C([2H])([2H])[2H])cc3)ccc12` [Example 23, (S)-(4-(3-amino-1-((isoquinolin-6-yl-1-d)amino)-1-oxopropan-2-yl-2-d)phenyl) methyl-d2 2,4-bis (methyl-d3)benzoate dihydrochloride], the ΔIOP % is given as −0.87%.

Turning to `Cc1ccc(C(=O)OCc2ccc([C@@H](CN)C(=O)Nc3ccc4cnccc4c3)cc2)c(C)c1.Cl.Cl` [Reference compound 1, (S)-4-(3-amino-1-(isoquinolin-6-ylamino)-1-oxopropan-2-yl)benzyl 2,4-dimethylbenzoate dihydrochloride, reference compound], the ΔIOP % is given as −4.35%.

These data come from patent publication US11485707B2, “Deuterated compounds as rock inhibitors” (Fochon Pharmaceuticals, Ltd., priority 2018, dated 2022).
